Biological target: T1, Acid ceramidase (Homo sapiens, UniProt Q13510)
T1 sequence (Q13510 22-395): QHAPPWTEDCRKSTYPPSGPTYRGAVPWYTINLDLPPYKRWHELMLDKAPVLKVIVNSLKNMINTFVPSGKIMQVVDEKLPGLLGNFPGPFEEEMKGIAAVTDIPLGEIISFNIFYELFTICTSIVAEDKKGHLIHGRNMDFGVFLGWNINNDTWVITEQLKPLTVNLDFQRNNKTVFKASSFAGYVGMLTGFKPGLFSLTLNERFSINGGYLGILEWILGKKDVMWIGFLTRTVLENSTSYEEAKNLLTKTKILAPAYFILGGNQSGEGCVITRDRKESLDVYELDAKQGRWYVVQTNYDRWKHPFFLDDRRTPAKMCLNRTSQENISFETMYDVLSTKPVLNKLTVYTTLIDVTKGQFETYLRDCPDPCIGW
Assay: Acid ceramidase assay (AC in vitro IC50)
Assay type: biochemical
Details: Acid ceramidase assay data of example compounds

## CS(=O)(=O)c1ccc(COc2ccc(-c3cn(C(=O)NCC4CCN(c5ccc6c(c5)CCO6)C4)cn3)cc2)cc1 (centres unmarked) [AC2020601-0506, N-((1-(2,3-dihydrobenzofuran-5-yl)pyrrolidin-3-yl)methyl)-4-(4-(4-(methylsulfonyl)benzyloxy)phenyl)-1H-imidazole-1-carboxamide]
  IC50: < 300 nM

## N#CCS(=O)(=O)c1ccc(COc2ccc(-c3cn(C(=O)NCC4CCN(c5ccccc5)C4)cn3)cc2)cc1 (centres unmarked) [AC2020601-0507, 4-(4-(4-(cyanomethylsulfonyl)benzyloxy)phenyl)-N-((1-phenylpyrrolidin-3-yl)methyl)-1H-imidazole-1-carboxamide]
  IC50: < 300 nM

Reference: patent publication US20250145598A1, “ACID CERAMIDASE INHIBITORS AND USES THEREOF” (The Regents of the University of California, priority 2021, published 2025)
